Calls of active or inactive are those of the source. No cut-off for these calls is given here.
Tests used:
[1] = system: Mycobacterium tuberculosis; assay: Inhibition of Mycobacterium tuberculosis ThyA using dUMP as substrate up to 100 uM measured immediatedly and at 10 mins post mTHF addition by spectrophotometric analysis
[2] = system: Mycobacterium tuberculosis; assay: (§1) Inhibition of Mycobacterium tuberculosis ThyX using [5-3H]dUMP as substrate after 10 mins by liquid scintillation counting analysis
[3] = system: Mycobacterium tuberculosis; assay: Activation of Mycobacterium tuberculosis ThyA using dUMP as substrate up to 100 uM measured immediatedly and at 10 mins post mTHF addition by spectrophotometric analysis
[4] = as §1

Compound | inhibition [1] | inhibition [2] | Activity [3] | IC50 [4]
CCCCCCCCCCOCc1cn([C@H]2C[C@H](O)[C@@H](COP(=O)(O)O)O2)c(=O)[nH]c1=O | inactive | inactive | – | –
CCCCCCCCCCc1cn(Cc2cn([C@H]3C[C@H](O)[C@@H](COP(=O)(O)O)O3)c(=O)[nH]c2=O)nn1 | inactive | inactive | – | –
CCCCCCCCCCCCOCc1cn([C@H]2C[C@H](N=[N+]=[N-])[C@@H](COP(=O)(O)O)O2)c(=O)[nH]c1=O | inactive | inactive | – | –
CCCCCCCCc1cn(Cc2cn([C@H]3C[C@H](O)[C@@H](COP(=O)(O)O)O3)c(=O)[nH]c2=O)nn1 | inactive | inactive | – | –
COCCOCCOCCOCc1cn([C@H]2C[C@H](O)[C@@H](COP(=O)(O)O)O2)c(=O)[nH]c1=O | inactive | inactive | – | –
CCCCCCCCCCCOCc1cn([C@H]2C[C@H](O)[C@@H](COP(=O)(O)O)O2)c(=O)[nH]c1=O | inactive | – | Active | 8.32 µM
CCCCCCCCCCCCOCc1cn([C@H]2C[C@H](O)[C@@H](COP(=O)(O)O)O2)c(=O)[nH]c1=O | inactive | inactive | – | –

Reference: ChEMBL document CHEMBL3627679, “Synthesis and evaluation of C-5 modified 2'-deoxyuridine monophosphates as inhibitors of M. tuberculosis thymidylate synthase” (Bioorg Med Chem, 2015)
